Results as given in ChEMBL document CHEMBL1153772 (J Nat Prod, 2009).

Key:
Assay type in all cases: functional
[1] = test system: NCI-H226; assay: Cytotoxicity against human NCI-H226 cells assessed cell growth
[2] = test system: NCI-H23; assay: Cytotoxicity against human NCI-H23 cells assessed cell growth
[3] = test system: NCI-H322M; assay: Cytotoxicity against human NCI-H322M cells assessed cell growth
[4] = test system: NCI-H460; assay: Cytotoxicity against human NCI-H460 cells assessed cell growth
[5] = test system: NCI-H522; assay: Cytotoxicity against human NCI-H522 cells assessed cell growth
[6] = test system: COLO 205; assay: Cytotoxicity against human COLO205 cells assessed cell growth
[7] = test system: HCC 2998; assay: Cytotoxicity against human HCC2998 cells assessed cell growth
[8] = test system: HCT-116; assay: Cytotoxicity against human HCT116 cells assessed cell growth
[9] = test system: HCT-15; assay: Cytotoxicity against human HCT15 cells assessed cell growth
[10] = test system: HT-29; assay: Cytotoxicity against human HT-29 cells assessed cell growth
[11] = test system: KM12; assay: Cytotoxicity against human KM12 cells assessed cell growth
[12] = test system: SW-620; assay: Cytotoxicity against human SW620 cells assessed cell growth
[13] = test system: SF-268; assay: Cytotoxicity against human SF268 cells assessed cell growth
[14] = test system: SF-295; assay: Cytotoxicity against human SF295 cells assessed cell growth
[15] = test system: SF-539; assay: Cytotoxicity against human SF539 cells assessed cell growth
[16] = test system: SNB-19; assay: Cytotoxicity against human SNB19 cells assessed cell growth
[17] = test system: SNB-75; assay: Cytotoxicity against human SNB75 cells assessed cell growth
[18] = test system: U-251; assay: Cytotoxicity against human U251 cells assessed cell growth
[19] = test system: LOX IMVI; assay: Cytotoxicity against human LOXIMVI cells assessed cell growth
[20] = test system: M14; assay: Cytotoxicity against human M14 cells assessed cell growth
[21] = test system: Malme-3M; assay: Cytotoxicity against human MALME-3M cells assessed cell growth
[22] = test system: MDA-MB-435; assay: Cytotoxicity against human MDA-MB-435 cells assessed cell growth
[23] = test system: SK-MEL-2; assay: Cytotoxicity against human SK-MEL-2 cells assessed cell growth
[24] = test system: SK-MEL-28; assay: Cytotoxicity against human SK-MEL-28 cells assessed cell growth
[25] = test system: SK-MEL-5; assay: Cytotoxicity against human SK-MEL-5 cells assessed cell growth
[26] = test system: UACC-62; assay: Cytotoxicity against human UACC62 cells assessed cell growth
[27] = test system: IGROV-1; assay: Cytotoxicity against human IGROV1 cells assessed cell growth
[28] = test system: OVCAR-3; assay: Cytotoxicity against human OVCAR-3 cells assessed cell growth
[29] = test system: OVCAR-4; assay: Cytotoxicity against human OVCAR4 cells assessed cell growth
[30] = test system: OVCAR-5; assay: Cytotoxicity against human OVCAR5 cells assessed cell growth
[31] = test system: SK-OV-3; assay: Cytotoxicity against human SKOV3 cells assessed cell growth
[32] = test system: NCI/ADR-RES; assay: Cytotoxicity against human NCI/ADR-RES cells assessed cell growth
[33] = test system: 786-0; assay: Cytotoxicity against human 786-0 cells assessed cell growth
[34] = test system: A498; assay: Cytotoxicity against human A498 cells assessed cell growth
[35] = test system: ACHN; assay: Cytotoxicity against human ACHN cells assessed cell growth
[36] = test system: SN12C; assay: Cytotoxicity against human SN12C cells assessed cell growth
[37] = test system: TK-10; assay: Cytotoxicity against human TK10 cells assessed cell growth
[38] = test system: UO-31; assay: Cytotoxicity against human UO31 cells assessed cell growth
[39] = test system: DU-145; assay: Cytotoxicity against human DU145 cells assessed cell growth
[40] = test system: MCF7; assay: Cytotoxicity against human MCF7 cells assessed cell growth
[41] = test system: MDA-MB-231; assay: Cytotoxicity against human MDA-MB-231 cells assessed cell growth
[42] = Cytotoxicity against human Hs 578T cells assessed cell growth
[43] = test system: BT-549; assay: Cytotoxicity against human BT549 cells assessed cell growth
[44] = test system: T47D; assay: Cytotoxicity against human T47D cells assessed cell growth
[45] = test system: MDA-MB-468; assay: Cytotoxicity against human MDA-MB-468 cells assessed cell growth

CC(=O)N(C)CCc1cc(Br)c(OCCCNc2ncn(C)c3ncnc2-3)c(Br)c1 [APHROCALLISTIN]
Activity [1]: 44.72% | Activity [2]: 42.18% | Activity [3]: 76.48% | Activity [4]: 60.08% | Activity [5]: 36.6% | Activity [6]: 104.32% | Activity [7]: 65.57% | Activity [8]: 28.57% | Activity [9]: 99.13% | Activity [10]: 88.11% | Activity [11]: 88.97% | Activity [12]: 89.87% | Activity [13]: 97.87% | Activity [14]: 50.01% | Activity [15]: 80.09% | Activity [16]: 71.64% | Activity [17]: 81.17% | Activity [18]: 79.39% | Activity [19]: 55.23% | Activity [20]: 73.49% | Activity [21]: 76.4% | Activity [22]: 62.57% | Activity [23]: 71.47% | Activity [24]: 84.58% | Activity [25]: 20% | Activity [26]: 79.32% | Activity [27]: 64.84% | Activity [28]: 87.3% | Activity [29]: 33.32% | Activity [30]: 88.65% | Activity [31]: 94.44% | Activity [32]: 72.89% | Activity [33]: 70.65% | Activity [34]: 71.71% | Activity [35]: 69.23% | Activity [36]: 92.68% | Activity [37]: 89.47% | Activity [38]: 79.45% | Activity [39]: 102.31% | Activity [40]: 39.83% | Activity [41]: 74.94% | Activity [42]: 52.48% | Activity [43]: 56.49% | Activity [44]: 26.91% | Activity [45]: 25.48%
